One experiment deals with CU-ACC1. The experiment is described as follows: area under concentration-response curve (viability) (AUC (a.u.)); higher = less active. The conditions noted are these: 48 h. Put shortly: (§1)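 After 48 h of treatment with 23 nL of each library compound at 11 concentrations, three adrenocortical carcinoma cell lines in 1,536-well plates (500–1,000 cells/well, 5 µL medium) were given CellTiter-Glo for 15 minutes at room temperature. Luminescence was then read and normalised per plate to vehicle and empty-well controls. AC50 and area under the curve were drawn from fitted concentration-response curves of inhibitory or non-responding classes only.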

For the next experiment, the system named is CU-ACC2. The description is as above. As to conditions: 48 h. Put shortly:
as §1

Each structure is given as a SMILES string.

For `O=C(Nc1cccnc1)c1cc(-c2ccnc(F)c2)ccc1OCc1ccccc1`, the results for the “area under concentration-response curve” value in the experiment on CU-ACC1 and in the experiment on CU-ACC2 were 514 and 615, respectively.

As to `CC(=O)Nc1ccc(OC[C@](C)(O)C(=O)Nc2ccc([N+](=O)[O-])c(C(F)(F)F)c2)cc1`, the “area under concentration-response curve” value amounted to 519 in the experiment on CU-ACC1 and 515 in the experiment on CU-ACC2.

On to `CCOCc1nc2c(N)nc3ccccc3c2n1CC(C)(C)O`, for which the results for the “area under concentration-response curve” value with CU-ACC1 and in the experiment with CU-ACC2 were 510 and 562, respectively.

In the case of `CCC[S+]([O-])c1ccc2[nH]c(NC(=O)OC)nc2c1` (centres undefined), the “area under concentration-response curve” value came out at 502 in the experiment with CU-ACC1 and 595 with CU-ACC2.

Turning to `C=CC(=O)N1C[C@H](Nc2ncnc3[nH]ccc23)CC[C@@H]1C`, the “area under concentration-response curve” value was 587 with CU-ACC1 and 622 with CU-ACC2.

As to `CCOC(=N)c1nc2ccc3ncnc(Nc4cc(F)c(F)cc4Cl)c3c2s1`, the “area under concentration-response curve” value in the experiment on CU-ACC1 amounted to 424; with CU-ACC2, 653.

In the case of `CN(Cc1cc(Br)cc(Br)c1N)C1CCCCC1`, the “area under concentration-response curve” value came to 383 with CU-ACC1 and 526 with CU-ACC2.

As to `Cc1cc(C(=O)Nc2cc(Oc3ccc4nc(NC(=O)C5CC5)cn4n3)ccc2C)n(C)n1`, the “area under concentration-response curve” value in the experiment with CU-ACC1 amounted to 511; with CU-ACC2 it was 606.

As to `COc1cc(/C=C(\C#N)C(=O)Nc2nnc(C(F)(F)F)s2)ccc1OCc1ccc(C(F)(F)F)cc1C(F)(F)F`, the “area under concentration-response curve” value in the experiment on CU-ACC1 was determined as 450; in the experiment with CU-ACC2, 488.

For `F\C1=C\NC(=O)NC1=O`, the “area under concentration-response curve” value with CU-ACC1 worked out at 483; in the experiment with CU-ACC2, 505.

In the case of `CC(C)c1ccc2oc3nc(N)c(C(=O)O)cc3c(=O)c2c1`, the entries for the “area under concentration-response curve” value with CU-ACC1 and with CU-ACC2 were 543 and 606, respectively.

For `CCCCOc1nc(N)c2c(n1)N(Cc1cccc(CN3CCCC3)c1)CC(=O)N2`, the “area under concentration-response curve” value with CU-ACC1 was 538; with CU-ACC2 it was 506.

Consider `CCOC(=O)N[C@@H]1CC[C@@H]2[C@@H](C1)C[C@H]1C(=O)O[C@H](C)[C@H]1[C@H]2/C=C/c1ccc(-c2cccc(F)c2)cn1`, for which the “area under concentration-response curve” value with CU-ACC1 stood at 537; in the experiment with CU-ACC2 it was 511.

For `Clc1ccc(COC(Cn2ccnc2)c2ccc(Cl)cc2Cl)c(Cl)c1` (centres undefined), the figures for the “area under concentration-response curve” value in the experiment with CU-ACC1 and in the experiment on CU-ACC2 were 265 and 308, respectively.

With `CC(C)=CC[C@@H](O)C/1=C/C(=O)C2=C(O)C=CC(=C2C1=O)O`, the “area under concentration-response curve” value was 568 with CU-ACC1 and 603 in the experiment with CU-ACC2.

On to `CCc1ccc(N(CC(C)C)[S+](=O)([O-])c2ccc(OCC3CCOCC3)c(CO)c2)cc1`, for which the “area under concentration-response curve” value in the experiment with CU-ACC1 worked out at 466; with CU-ACC2, 586.

Regarding `O=C(Oc1ccc([N+](=O)[O-])cc1)N1CCN(Cc2cccc(Oc3ccccc3)c2)CC1`, the “area under concentration-response curve” value in the experiment with CU-ACC1 was 531; with CU-ACC2 it was 556.

For the compound `NC1CCCN(c2c(/C=C3\SC(=O)NC3=O)cccc2-c2ccccc2)C1` (centres undefined), the figures for the “area under concentration-response curve” value in the experiment with CU-ACC1 and in the experiment with CU-ACC2 were 563 and 648, respectively.

Regarding `CCCCC[C@H](O)/C=C/[C@H]1[C@H](O)CC(=O)[C@@H]1CCCCCCC(=O)O`, the “area under concentration-response curve” value was 402 with CU-ACC1 and 612 with CU-ACC2.

On to `CCCCCCOC(=O)/N=C(/N)c1ccc(NCc2nc3cc(C(=O)N(CCC(=O)OCC)c4ccccn4)ccc3n2C)cc1`, for which the entries for the “area under concentration-response curve” value with CU-ACC1 and in the experiment with CU-ACC2 were 523 and 594, respectively.

Regarding `NC(=O)c1ccc(I)c([N+](=O)[O-])c1`, the entries for the “area under concentration-response curve” value in the experiment on CU-ACC1 and in the experiment on CU-ACC2 were 549 and 583, respectively.

In the case of `CN[C@H]1CN(C[C@@H]1OC)C2=NC3=C(C=C2)C(=O)C(=C\N3C4=NC=CS4)/C(O)=O`, the “area under concentration-response curve” value with CU-ACC1 came out at 530; with CU-ACC2, 632.

As to `Cc1cccc(N(C)C(=S)Oc2ccc3ccccc3c2)c1`, the “area under concentration-response curve” value in the experiment on CU-ACC1 came to 428; in the experiment on CU-ACC2 it was 497.

With `O=C(NCCO[N+](=O)[O-])c1cccnc1`, the “area under concentration-response curve” value in the experiment on CU-ACC1 is 566; in the experiment on CU-ACC2 it was 605.

As to `C[C@H]1[C@H](O)[C@@H](C)/C=C/C=C/CC/C=C/C=C/C=C/C=C/[C@H](O[C@@H]2O[C@H](C)[C@@H](O)[C@H](N)[C@@H]2O)C[C@@H]2O[C@](O)(C[C@@H](O)[C@H](O)CC[C@@H](O)C[C@@H](O)C[C@@H](O)CC(=O)O[C@H]1C)C[C@H](O)[C@H]2C(=O)O`, the “area under concentration-response curve” value in the experiment on CU-ACC1 worked out at 375; in the experiment on CU-ACC2, 426.

Regarding `CC1=C(C=CC=C1)N2\C(=N/C3=C(C(=CC=C3)C)C2=O)C[N]4N=CC5=C4N=CN=C5N`, the “area under concentration-response curve” value in the experiment on CU-ACC1 was 583; in the experiment with CU-ACC2, 614.

As for `COc1cc([C@@H]2c3cc4c(cc3[C@@H](O[C@@H]3O[C@@H]5CO[C@@H](C)O[C@H]5[C@H](O)[C@H]3O)[C@H]3COC(=O)[C@H]23)OCO4)cc(OC)c1O`, the “area under concentration-response curve” value in the experiment with CU-ACC1 was found to be 492; in the experiment on CU-ACC2, 592.

On to `CN(CCOc1ccc(-c2ccc3c(c2)OCO3)cc1C(C)(C)C)CC(=O)O`, for which the “area under concentration-response curve” value was determined as 498 in the experiment with CU-ACC1 and 486 with CU-ACC2.

As to `OC[C@H]1O[C@@H](O[C@@H]2O\C=C(/[C@H]3C\C=C(CO)/[C@@H]23)C(O)=O)[C@H](O)[C@@H](O)[C@@H]1O`, the “area under concentration-response curve” value in the experiment with CU-ACC1 was determined as 538; in the experiment on CU-ACC2, 594.

`CN1CCN(CC1)C2=CC=C(NC3=NC=C4\C=C(\C#N)C(=O)N(C5CCCC5)C4=N3)C=C2`: the “area under concentration-response curve” value with CU-ACC1 worked out at 548; in the experiment with CU-ACC2, 588.

For the compound `CCc1cc(/C(C)=N/OCc2ccc(C3CCCCC3)c(C(F)(F)F)c2)ccc1CN1CC(C(=O)O)C1`, the “area under concentration-response curve” value with CU-ACC1 was found to be 462; with CU-ACC2, 526.

As to `c1ccc2c(Cc3c[nH]c4ccccc34)c[nH]c2c1`, the “area under concentration-response curve” value in the experiment with CU-ACC1 came to 505; with CU-ACC2, 574.

As for `COc1ccnc(C[S+]([O-])c2nc3cc(OC(F)F)ccc3[nH]2)c1OC` (centres undefined), the “area under concentration-response curve” value with CU-ACC1 came out at 554; with CU-ACC2, 585.

Turning to `CCCCOc1ccc(C(=O)Nc2ccc(F)cc2F)cc1`, the results for the “area under concentration-response curve” value with CU-ACC1 and in the experiment with CU-ACC2 were 514 and 586, respectively.

Regarding `O=C1CC(c2c[nH]c3ccc(F)cc23)C(=O)N1` (centres undefined), the entries for the “area under concentration-response curve” value in the experiment with CU-ACC1 and with CU-ACC2 were 465 and 424, respectively.

For `O=C/1\C=C(/OC(=C1)/C2=C3SC4=C(SC3=CC=C2)C=CC=C4)N5CCOCC5`, the “area under concentration-response curve” value is 550 in the experiment on CU-ACC1 and 650 in the experiment with CU-ACC2.

Consider `CCCCCCCCCCCC/1=C(O)/C(=O)/C=C(O)\C1=O`, for which the “area under concentration-response curve” value in the experiment with CU-ACC1 is 534; with CU-ACC2, 593.

The record behind these values is the supplement of paper PMC10949913.
